Measured values: the NIST ThermoML archive (doi:10.1016/j.fluid.2017.06.022)
Numbers after ± are expanded uncertainties.

Assay: xn = mol fraction of the nth substance listed
Conditions: Liquid, Bellows volumetry

C=CC [propene] + Cc1ccccc1
Conditions | mass density [kg/m3]
295.7 K, 700 kPa, x1 = 0.53 | 679.7 ± 16
295.7 K, 1000 kPa, x1 = 0.53 | 680.5 ± 16
295.7 K, 1400 kPa, x1 = 0.53 | 681.2 ± 16
295.7 K, 1900 kPa, x1 = 0.53 | 681.6 ± 16
295.7 K, 2300 kPa, x1 = 0.53 | 682.4 ± 16
295.7 K, 2900 kPa, x1 = 0.53 | 683.2 ± 16
295.7 K, 3400 kPa, x1 = 0.53 | 684 ± 16
295.7 K, 3600 kPa, x1 = 0.53 | 684 ± 16
295.7 K, 5200 kPa, x1 = 0.53 | 685.5 ± 16
295.7 K, 7300 kPa, x1 = 0.53 | 688.3 ± 16
295.7 K, 8600 kPa, x1 = 0.53 | 689.5 ± 17
295.7 K, 10700 kPa, x1 = 0.53 | 691.9 ± 17
295.7 K, 13500 kPa, x1 = 0.53 | 694.7 ± 17
295.7 K, 23900 kPa, x1 = 0.53 | 704.6 ± 17
295.7 K, 31000 kPa, x1 = 0.53 | 710.9 ± 17
295.7 K, 37900 kPa, x1 = 0.53 | 716 ± 17
295.7 K, 44100 kPa, x1 = 0.53 | 720.7 ± 17
295.7 K, 51800 kPa, x1 = 0.53 | 726.4 ± 17
295.7 K, 58300 kPa, x1 = 0.53 | 730.4 ± 18
295.7 K, 63200 kPa, x1 = 0.53 | 733.6 ± 18
295.7 K, 67000 kPa, x1 = 0.53 | 735.9 ± 18
295.9 K, 200 kPa, x1 = 0.1159 | 797.6 ± 19
295.9 K, 300 kPa, x1 = 0.1159 | 798.9 ± 19
295.9 K, 600 kPa, x1 = 0.1159 | 799.5 ± 19
295.9 K, 1300 kPa, x1 = 0.1159 | 800.1 ± 19
295.9 K, 2000 kPa, x1 = 0.1159 | 800.7 ± 19
295.9 K, 3500 kPa, x1 = 0.1159 | 802 ± 19
295.9 K, 7200 kPa, x1 = 0.1159 | 805.2 ± 19
295.9 K, 10200 kPa, x1 = 0.1159 | 807.7 ± 19
295.9 K, 13500 kPa, x1 = 0.1159 | 810.3 ± 20
296.4 K, 1000 kPa, x1 = 0.7612 | 606.8 ± 15
296.4 K, 1400 kPa, x1 = 0.7612 | 610 ± 15
296.4 K, 2200 kPa, x1 = 0.7612 | 611.2 ± 15
296.4 K, 3300 kPa, x1 = 0.7612 | 613.2 ± 15
296.4 K, 5200 kPa, x1 = 0.7612 | 616.4 ± 15
296.4 K, 6900 kPa, x1 = 0.7612 | 619.3 ± 15
296.4 K, 10300 kPa, x1 = 0.7612 | 624.6 ± 15
296.4 K, 10400 kPa, x1 = 0.7612 | 624.6 ± 15
296.4 K, 13800 kPa, x1 = 0.7612 | 629.7 ± 15
296.4 K, 17200 kPa, x1 = 0.7612 | 634.4 ± 15
296.4 K, 24100 kPa, x1 = 0.7612 | 643.5 ± 16
296.4 K, 31100 kPa, x1 = 0.7612 | 652.1 ± 16
296.4 K, 37700 kPa, x1 = 0.7612 | 659.4 ± 16
296.4 K, 44500 kPa, x1 = 0.7612 | 666 ± 16
296.4 K, 51400 kPa, x1 = 0.7612 | 672.7 ± 16
296.4 K, 57800 kPa, x1 = 0.7612 | 678 ± 16
296.4 K, 62900 kPa, x1 = 0.7612 | 682 ± 16
296.4 K, 66900 kPa, x1 = 0.7612 | 685 ± 16
324.6 K, 1700 kPa, x1 = 0.7612 | 572 ± 14
324.6 K, 1900 kPa, x1 = 0.7612 | 572.3 ± 14
324.6 K, 2600 kPa, x1 = 0.7612 | 574.4 ± 14
324.6 K, 3600 kPa, x1 = 0.7612 | 576.9 ± 14
324.6 K, 5300 kPa, x1 = 0.7612 | 580.5 ± 14
324.6 K, 7000 kPa, x1 = 0.7612 | 584.1 ± 14
324.6 K, 10500 kPa, x1 = 0.7612 | 591.1 ± 14
324.6 K, 17400 kPa, x1 = 0.7612 | 603.7 ± 14
324.6 K, 24200 kPa, x1 = 0.7612 | 614.4 ± 15
324.6 K, 30900 kPa, x1 = 0.7612 | 623.8 ± 15
324.6 K, 37800 kPa, x1 = 0.7612 | 632.7 ± 15
324.6 K, 44500 kPa, x1 = 0.7612 | 640.5 ± 15
324.6 K, 51500 kPa, x1 = 0.7612 | 648.4 ± 16
324.6 K, 58400 kPa, x1 = 0.7612 | 655.7 ± 16
324.6 K, 63100 kPa, x1 = 0.7612 | 660.3 ± 16
324.6 K, 67000 kPa, x1 = 0.7612 | 664.1 ± 16
324.8 K, 300 kPa, x1 = 0.1159 | 771 ± 18
324.8 K, 600 kPa, x1 = 0.1159 | 771.6 ± 18
324.8 K, 1100 kPa, x1 = 0.1159 | 772.2 ± 18
324.8 K, 1600 kPa, x1 = 0.1159 | 772.8 ± 19
324.8 K, 2000 kPa, x1 = 0.1159 | 773.4 ± 19
324.8 K, 2500 kPa, x1 = 0.1159 | 774 ± 19
324.8 K, 3300 kPa, x1 = 0.1159 | 774.6 ± 19
324.8 K, 5000 kPa, x1 = 0.1159 | 776.3 ± 19
324.8 K, 7000 kPa, x1 = 0.1159 | 778.7 ± 19
324.8 K, 10200 kPa, x1 = 0.1159 | 781.7 ± 19
324.8 K, 13500 kPa, x1 = 0.1159 | 784.7 ± 19
324.8 K, 16900 kPa, x1 = 0.1159 | 787.7 ± 19
324.8 K, 20400 kPa, x1 = 0.1159 | 791.4 ± 19
324.8 K, 23600 kPa, x1 = 0.1159 | 793.9 ± 19
324.8 K, 31300 kPa, x1 = 0.1159 | 800.7 ± 19
324.8 K, 37800 kPa, x1 = 0.1159 | 805.8 ± 19
374.3 K, 3700 kPa, x1 = 0.7612 | 493.5 ± 12
374.3 K, 3800 kPa, x1 = 0.7612 | 494.1 ± 12
374.3 K, 5300 kPa, x1 = 0.7612 | 503.1 ± 12
374.3 K, 6900 kPa, x1 = 0.7612 | 511.6 ± 12
374.3 K, 8400 kPa, x1 = 0.7612 | 518.3 ± 12
374.3 K, 10400 kPa, x1 = 0.7612 | 526 ± 13
374.3 K, 17200 kPa, x1 = 0.7612 | 547.4 ± 13
374.3 K, 23900 kPa, x1 = 0.7612 | 562.2 ± 14
374.3 K, 30800 kPa, x1 = 0.7612 | 574.7 ± 14
374.3 K, 37700 kPa, x1 = 0.7612 | 586.8 ± 14
374.3 K, 44200 kPa, x1 = 0.7612 | 596.6 ± 14
375.3 K, 700 kPa, x1 = 0.1159 | 723.9 ± 17
375.3 K, 900 kPa, x1 = 0.1159 | 724.4 ± 17
375.3 K, 1400 kPa, x1 = 0.1159 | 725.5 ± 17
375.3 K, 2000 kPa, x1 = 0.1159 | 726.5 ± 18
375.3 K, 2500 kPa, x1 = 0.1159 | 727.6 ± 18
375.3 K, 3400 kPa, x1 = 0.1159 | 728.6 ± 18
375.3 K, 5200 kPa, x1 = 0.1159 | 731.2 ± 18
375.3 K, 6900 kPa, x1 = 0.1159 | 733.8 ± 18
375.3 K, 10100 kPa, x1 = 0.1159 | 737.6 ± 18
375.3 K, 17200 kPa, x1 = 0.1159 | 746.2 ± 18
375.3 K, 23700 kPa, x1 = 0.1159 | 753.4 ± 18
375.3 K, 30800 kPa, x1 = 0.1159 | 760.7 ± 18
375.3 K, 37600 kPa, x1 = 0.1159 | 767 ± 18
375.4 K, 2600 kPa, x1 = 0.53 | 588.6 ± 14
375.4 K, 2900 kPa, x1 = 0.53 | 589.8 ± 14
375.4 K, 4300 kPa, x1 = 0.53 | 593.6 ± 14
375.4 K, 6900 kPa, x1 = 0.53 | 600.6 ± 14
375.4 K, 9200 kPa, x1 = 0.53 | 607.4 ± 15
375.4 K, 10500 kPa, x1 = 0.53 | 609.9 ± 15
375.4 K, 17900 kPa, x1 = 0.53 | 622.3 ± 15
375.4 K, 23800 kPa, x1 = 0.53 | 632 ± 15
375.4 K, 24100 kPa, x1 = 0.53 | 631.5 ± 15
375.4 K, 30900 kPa, x1 = 0.53 | 641.7 ± 15
375.4 K, 37900 kPa, x1 = 0.53 | 651.5 ± 16
375.4 K, 44800 kPa, x1 = 0.53 | 659.4 ± 16
375.4 K, 51200 kPa, x1 = 0.53 | 666.4 ± 16
375.4 K, 58800 kPa, x1 = 0.53 | 674.3 ± 16
375.4 K, 63200 kPa, x1 = 0.53 | 678.1 ± 16
375.4 K, 67400 kPa, x1 = 0.53 | 682 ± 16
